Literature values, collected in US11414692B2, “Method and device for characterizing the inhibitory capacity of a molecule on a microorganism” (BIOMERIEUX, priority 2014, dated 2022).
Converted amounts (≈) assume the structure as drawn.

Test system: E. coli ATCC 25922
Settings: manual technique, incubation time 18 to 24 h

Row | Molecule | MIC concentration recognized by the French government, or "regulatory" MIC
1 | O=C(N[C@H](CO)[C@H](O)c1ccc([N+](=O)[O-])cc1)C(Cl)Cl [chloramphenicol] | 4 µg/mL (≈ 12.4 µM)
2 | gentamicin | 0.5 µg/mL
3 | CCn1cc(C(=O)O)c(=O)c2ccc(C)nc21 [nalidixic acid] | 2 µg/mL (≈ 8.61 µM)
